Measured values from US11453673B2, “Substituted [1,2,4]triazolo[4,3-a]pyrazines as phosphodiesterase inhibitors” (Eli Lilly and Company, priority 2018, dated 2022).

Tests used:
Type in all cases: biochemical
human PDE1A = human PDE1A (Homo sapiens (Human), UniProt P54750); experiment: Ca2+-calmodulin dependent PDE enzyme assay (radiometric SPA, [3H]cAMP); conditions: Mean ± standard deviation; [3H]cAMP 47 nM; read-out: PDE 1A IC50
From the text: (§1) The nucleotide sequences encoding full-length human PDE1A (NP_001003683.1) and PDE1C (NP_005011.1) are inserted into pFastBac1 (Invitrogen) vector with an N-terminal HIS tag. The nucleotide sequences encoding full-length human PDE4D (NP_006194.2) and catalytic domain (residue 641-1141) of PDE3A (NP_000912.3) are inserted into pFastBac1 (Invitrogen) vector with a C-terminal HIS tag. The nucleotide sequences encoding full-length human PDE6A (NP_000431.2) and PDE6B (AAH00249.1) are inserted into pFastBacDual (Invitrogen) vector with an N-terminal HIS tag and N-terminal Flag tag, respectively, for production of PDE6A/6B dimer. Baculovirus generation and protein expression in Sf9 cells are carried out according to the protocol of Bac-to-Bac Baculovirus Expression system (Invitrogen). The nucleotide sequence encoding full-length human PDE1B (NP_000915.1) is inserted into pIEX4 (Novagen) with a C-terminal HIS tag, and both protein productions in Sf9 cells are carried out according to the vendor's protocol (Novagen). The His tagged PDE proteins are purified using Ni-NTA agarose (Qiagen) followed by size exclusion chromatography on a SUPERDEX© 200 column (GE Healthcare) in storage buffer (20 mM Tris-HCl, pH 7.5, 150 mM NaCl, 10% Glycerol). The Flag tagged PDE proteins including PDE6A/6B are purified using anti-Flag M2-agarose (Sigma), after purification through NiNTA column chromatography and eluted in storage buffer (50 mM Tris-HCl, pH 7.5, 150 mM NaCl, 10% Glycerol, 0.1 mg/ml Flag peptide). All purified proteins are stored at −80° C. in small aliquots.
(§2) All 3′, 5′ cyclic nucleotide PDE enzyme activities are measured with a radiometric enzyme assay based on SPA detection system. Compounds to be tested are diluted in pure DMSO using ten point concentration response curves. Maximal compound concentration in the reaction mixture is either 10 or 100 μM. Compounds at the appropriate concentration are pre-incubated with either of the PDE enzymes for 30 minutes before the reaction is started by the addition of substrate. Reactions are allowed to proceed for 60 minutes at room temperature. Next, reactions are stopped by addition of SPA beads. Samples are read 12 hours later in a MICROBETA™ TRILUX© Counter. IC50 values are calculated by plotting the normalized data vs. log [compound] and fitting the data using a four parameter logistic equation.
(§3) PDE1B, PDE1A, and PDE1C are cloned and purified following standard protein generation procedures. […] The final enzyme concentration is 0.25, 0.074 and 0.0012 nM, for PDE1A, PDE1B and PDE1C respectively. The reactions are started by addition of the substrate, [^3H]cAMP, to give a final concentration of 47 nM.

human PDE1B = human PDE1B (Homo sapiens (Human), UniProt Q01064); experiment: as above; conditions: Mean ± standard deviation; [3H]cAMP 47 nM; read-out: PDE 1B IC50
From the text: as §1, §2, §3

human PDE1C = human PDE1C (Homo sapiens (Human), UniProt Q14123); experiment: as above; conditions: Mean ± standard deviation; [3H]cAMP 47 nM; read-out: PDE 1C IC50
From the text: as §1, §2, §3

[1] = biological target: human PDE3A (catalytic domain) (Homo sapiens (Human), UniProt Q14432); experiment: PDE enzyme assay using [3H]cAMP as substrate (SPA); conditions: [3H]cAMP 47 nM
From the text: as §1, §2
(§4) The following PDE activities are measured using [3H]cAMP as reaction substrate: human PDE3A (catalytic domain) and human PDE4D. Both enzymes are cloned and purified following standard procedures. The assay buffer is prepared to give a final concentration in the assay of 50 mM Tris-HCl, 8.3 mM MgCl2, 1.7 mM EDTA and 0.1% BSA at pH 7.5. Final enzyme concentrations are 0.008 and 0.021 nM for PDE3A and PDE4D, respectively. Reactions are started by addition of the substrate, [3H]cAMP, to give a final concentration of 47 nM.

human PDE4D = human PDE4D (Homo sapiens (Human), UniProt Q08499); experiment: PDE enzyme assay using [3H]cAMP as substrate (SPA); conditions: Mean ± standard deviation; [3H]cAMP 47 nM
From the text: as §1, §2, §4

human PDE6A/6B = human PDE6A/6B (Homo sapiens (Human), UniProt P16499+P35913); experiment: PDE enzyme assay using [3H]cGMP as substrate (SPA); conditions: [3H]cGMP 80 nM; read-out: PDE6AB IC50
From the text: as §1, §2
The following phosphodiesterase activities are measured using [3H]cGMP as reaction substrate: human PDE6A/6B. The catalytic active form of human PDE6 is a dimer composed of an a (human PDE6A) and […] (human PDE6B). The dimer of human PDE6A/6B is produced by the coexpression and purification strategy, using two purification steps, i.e., NiNTA and anti-FLAG Sepharose chromatography. The assay buffer is prepared to give a final concentration in the assay of 50 mM Tris-HCl, 8.3 mM MgCl2, 1.7 mM EDTA and 0.1% BSA at pH 7.5. The final enzyme concentration is 5 nM. The reactions are started by addition of the substrate, [3H]cGMP, to give a final concentration of 80 nM.

human PDE6A/6B, sequence (P16499 whole entry): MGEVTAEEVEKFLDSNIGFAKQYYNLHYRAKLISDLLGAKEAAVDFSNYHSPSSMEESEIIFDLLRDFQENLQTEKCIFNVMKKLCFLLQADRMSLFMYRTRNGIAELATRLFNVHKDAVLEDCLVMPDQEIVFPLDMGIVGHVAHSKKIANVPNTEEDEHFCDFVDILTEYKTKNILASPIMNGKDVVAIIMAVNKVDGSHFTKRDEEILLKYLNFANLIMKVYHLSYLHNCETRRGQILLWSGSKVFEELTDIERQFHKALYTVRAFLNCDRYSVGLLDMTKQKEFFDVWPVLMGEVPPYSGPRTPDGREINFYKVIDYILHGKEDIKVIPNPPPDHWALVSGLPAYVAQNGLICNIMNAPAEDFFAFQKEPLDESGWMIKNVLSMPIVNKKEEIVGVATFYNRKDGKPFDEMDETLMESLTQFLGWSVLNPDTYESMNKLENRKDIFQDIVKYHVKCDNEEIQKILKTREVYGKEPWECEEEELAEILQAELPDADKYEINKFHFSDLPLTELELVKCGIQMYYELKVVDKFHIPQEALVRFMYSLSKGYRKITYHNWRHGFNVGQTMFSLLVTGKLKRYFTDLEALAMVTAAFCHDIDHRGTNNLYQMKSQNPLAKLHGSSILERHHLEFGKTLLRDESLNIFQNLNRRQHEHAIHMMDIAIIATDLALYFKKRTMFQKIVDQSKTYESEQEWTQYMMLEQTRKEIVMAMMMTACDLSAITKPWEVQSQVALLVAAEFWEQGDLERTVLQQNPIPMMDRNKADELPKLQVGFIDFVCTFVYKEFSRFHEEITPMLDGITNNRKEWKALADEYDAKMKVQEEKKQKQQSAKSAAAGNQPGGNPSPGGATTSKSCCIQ
human PDE6A/6B, sequence (P35913 whole entry): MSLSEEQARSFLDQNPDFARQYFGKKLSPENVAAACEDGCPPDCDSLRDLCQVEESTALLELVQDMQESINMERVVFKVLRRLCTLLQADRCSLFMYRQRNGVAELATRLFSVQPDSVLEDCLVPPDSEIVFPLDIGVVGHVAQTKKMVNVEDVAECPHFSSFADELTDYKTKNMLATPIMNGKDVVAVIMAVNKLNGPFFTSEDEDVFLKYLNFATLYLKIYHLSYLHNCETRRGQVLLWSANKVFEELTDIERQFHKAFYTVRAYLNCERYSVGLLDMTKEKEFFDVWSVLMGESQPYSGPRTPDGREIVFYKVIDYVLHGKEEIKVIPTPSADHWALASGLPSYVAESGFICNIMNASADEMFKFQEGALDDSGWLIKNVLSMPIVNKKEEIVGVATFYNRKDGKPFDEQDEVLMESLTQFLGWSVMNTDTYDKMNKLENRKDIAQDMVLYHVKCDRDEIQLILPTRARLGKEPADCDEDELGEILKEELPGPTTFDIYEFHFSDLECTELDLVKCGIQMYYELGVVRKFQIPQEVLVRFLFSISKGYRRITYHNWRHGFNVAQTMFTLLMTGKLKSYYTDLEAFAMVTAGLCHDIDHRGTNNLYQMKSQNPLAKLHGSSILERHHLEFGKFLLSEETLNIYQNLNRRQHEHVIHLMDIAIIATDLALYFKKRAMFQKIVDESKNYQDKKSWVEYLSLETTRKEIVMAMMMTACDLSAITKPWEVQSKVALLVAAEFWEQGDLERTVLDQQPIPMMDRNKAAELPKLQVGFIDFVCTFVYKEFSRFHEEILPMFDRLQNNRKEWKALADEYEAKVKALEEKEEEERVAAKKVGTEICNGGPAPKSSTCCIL
human PDE3A (catalytic domain), sequence (Q14432 641-1141): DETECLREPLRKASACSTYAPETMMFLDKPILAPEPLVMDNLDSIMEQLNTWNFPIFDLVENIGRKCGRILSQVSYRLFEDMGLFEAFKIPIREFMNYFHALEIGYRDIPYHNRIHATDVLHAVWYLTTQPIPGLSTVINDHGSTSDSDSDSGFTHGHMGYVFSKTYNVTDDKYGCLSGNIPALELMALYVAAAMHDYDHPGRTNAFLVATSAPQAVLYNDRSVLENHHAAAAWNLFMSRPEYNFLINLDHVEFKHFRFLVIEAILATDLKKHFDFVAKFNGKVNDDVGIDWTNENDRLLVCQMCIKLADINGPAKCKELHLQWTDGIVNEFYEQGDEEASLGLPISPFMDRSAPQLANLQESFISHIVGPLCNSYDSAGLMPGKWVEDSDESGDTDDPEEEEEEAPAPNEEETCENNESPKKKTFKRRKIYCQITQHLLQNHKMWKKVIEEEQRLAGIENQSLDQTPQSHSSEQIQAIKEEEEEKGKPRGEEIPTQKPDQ
human PDE4D, sequence (Q08499 other isoform, or with tags, fused parts or gaps): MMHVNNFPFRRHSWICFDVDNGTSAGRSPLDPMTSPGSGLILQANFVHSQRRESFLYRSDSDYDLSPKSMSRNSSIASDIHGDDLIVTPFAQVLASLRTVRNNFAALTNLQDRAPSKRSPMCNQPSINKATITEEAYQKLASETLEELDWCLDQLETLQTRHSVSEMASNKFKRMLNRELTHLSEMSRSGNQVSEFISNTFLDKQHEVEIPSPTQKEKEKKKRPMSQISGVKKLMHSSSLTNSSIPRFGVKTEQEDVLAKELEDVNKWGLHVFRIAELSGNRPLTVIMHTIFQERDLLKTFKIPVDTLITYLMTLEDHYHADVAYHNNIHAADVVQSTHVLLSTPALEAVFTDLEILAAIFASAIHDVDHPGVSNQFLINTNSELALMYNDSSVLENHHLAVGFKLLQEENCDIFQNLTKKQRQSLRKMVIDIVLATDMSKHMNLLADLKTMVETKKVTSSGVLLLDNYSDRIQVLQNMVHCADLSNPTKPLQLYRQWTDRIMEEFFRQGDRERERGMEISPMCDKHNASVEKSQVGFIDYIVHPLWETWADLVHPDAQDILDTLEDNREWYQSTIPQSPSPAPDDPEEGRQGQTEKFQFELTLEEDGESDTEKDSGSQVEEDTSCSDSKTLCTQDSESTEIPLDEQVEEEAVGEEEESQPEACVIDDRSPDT

Cc1c(C)n2c(C3(C4CC4)CC3)nnc2c(=O)n1CC1CCC1 [Example 4, 7-(Cyclobutylmethyl)-3-(1-cyclopropylcyclopropyl)-5,6-dimethyl-[1,2,4]triazolo[4,3-a]pyrazin-8-one]
IC50 (human PDE1A): 0.00371 ± 8e-05 µM | IC50 (human PDE1B): 0.00365 ± 0.00188 µM | IC50 (human PDE1C): 0.00106 ± 0.00024 µM | IC50 [1]: > 100 µM | IC50 (human PDE4D): 24 µM | IC50 (human PDE6A/6B): > 10 µM

CCC1(c2nnc3c(=O)n(CC4CCCCO4)c(C)c(C)n23)CC1 (single isomer, unassigned) [Example 12, 3-(1-Ethylcyclopropyl)-5,6-dimethyl-7-(tetrahydropyran-2-ylmethyl)-[1,2,4]triazolo[4,3-a]pyrazin-8-one]
IC50 (human PDE1A): 0.0446 µM | IC50 (human PDE1C): 0.0132 µM | IC50 [1]: > 100 µM | IC50 (human PDE4D): 31 µM | IC50 (human PDE6A/6B): 7.62 µM

Cc1c(C)n2c(C3(C4CC4)CC3)nnc2c(=O)n1CC1CCCCO1 (single isomer, unassigned) [Example 10]
IC50 (human PDE1C): 0.002 ± 0.000311 µM | IC50 [1]: > 100 µM | IC50 (human PDE4D): 21.4 µM | IC50 (human PDE6A/6B): > 10 µM

Cc1c(C)n2c(C3(C4CC4)CC3)nnc2c(=O)n1CC1CC1 [Example 2, 3-(1-Cyclopropylcyclopropyl)-7-(cyclopropylmethyl)-5,6-dimethyl-[1,2,4]triazolo[4,3-a]pyrazin-8-one]
IC50 (human PDE1A): 0.00373 ± 0.00202 µM | IC50 (human PDE1B): 0.00411 ± 0.0011 µM | IC50 (human PDE1C): 0.00281 ± 0.00088 µM | IC50 [1]: > 100 µM | IC50 (human PDE4D): 23.8 ± 0.8 µM | IC50 (human PDE6A/6B): > 10 µM

CCC1(c2nnc3c(=O)n(CC4CCCCO4)c(C)c(C)n23)CC1 (racemic) [Example 7, 3-(1-Ethylcyclopropyl)-5,6-dimethyl-7-(tetrahydropyran-2-ylmethyl)-[1,2,4]triazolo[4,3-a]pyrazin-8-one]
IC50 (human PDE1C): 0.00776 µM | IC50 [1]: > 100 µM | IC50 (human PDE4D): 46.5 µM | IC50 (human PDE6A/6B): > 10 µM

CCC1(c2nnc3c(=O)n(CC4CCCCO4)c(C)c(C)n23)CC1 (single isomer, unassigned) [Example 11, 3-(1-Ethylcyclopropyl)-5,6-dimethyl-7-(tetrahydropyran-2-ylmethyl)-[1,2,4]triazolo[4,3-a]pyrazin-8-one]
IC50 (human PDE1A): 0.0132 µM | IC50 (human PDE1C): 0.00477 ± 6e-05 µM | IC50 [1]: > 100 µM | IC50 (human PDE4D): 67.2 µM | IC50 (human PDE6A/6B): > 10 µM

Cc1c(C)n2c(C3(C)CC3)nnc2c(=O)n1CC1CCCCO1 (single isomer, unassigned) [Example 13, 5,6-Dimethyl-3-(1-methylcyclopropyl)-7-(tetrahydropyran-2-ylmethyl)-[1,2,4]triazolo[4,3-a]pyrazin-8-one]
IC50 [1]: > 100 µM | IC50 (human PDE4D): > 100 µM | IC50 (human PDE6A/6B): > 10 µM

Cc1c(C)n2c(C3(C4CC4)CC3)nnc2c(=O)n1CC1(C)CC1 [Example 15, 3-(1-Cyclopropylcyclopropyl)-5,6-dimethyl-7-[(1-methylcyclopropyl)methyl]-[1,2,4]triazolo[4,3-a]pyrazin-8-one]
IC50 (human PDE1A): 0.0031 ± 0.0011 µM | IC50 (human PDE1B): 0.0049 ± 0.0018 µM | IC50 (human PDE1C): 0.0014 ± 0.0003 µM | IC50 [1]: 9.6 µM | IC50 (human PDE4D): 14 ± 1.3 µM | IC50 (human PDE6A/6B): > 10 µM

CCCCn1c(C)c(C)n2c(C3(C4CC4)CC3)nnc2c1=O [Example 5, 7-Butyl-3-(1-cyclopropylcyclopropyl)-5,6-dimethyl-[1,2,4]triazolo[4,3-a]pyrazin-8-one]
IC50 (human PDE1A): 0.0115 ± 0.0036 µM | IC50 (human PDE1B): 0.0111 ± 0.003 µM | IC50 (human PDE1C): 0.0027 ± 0.00016 µM | IC50 [1]: > 100 µM | IC50 (human PDE4D): 29.9 µM | IC50 (human PDE6A/6B): > 10 µM

Cc1c(C)n2c(C3(C4CC4)CC3)nnc2c(=O)n1CC1CCCCO1 (single isomer, unassigned) [Example 9, 3-(1-Cyclopropylcyclopropyl)-5,6-dimethyl-7-(tetrahydropyran-2-ylmethyl)-[1,2,4]triazolo[4,3-a]pyrazin-8-one]
IC50 (human PDE1C): 0.000958 ± 0.000487 µM | IC50 [1]: > 100 µM | IC50 (human PDE4D): 33.1 µM | IC50 (human PDE6A/6B): > 10 µM

CCCCCn1c(C)c(C)n2c(C3(C4CC4)CC3)nnc2c1=O [Example 3, 3-(1-Cyclopropylcyclopropyl)-5,6-dimethyl-7-pentyl-[1,2,4]triazolo[4,3-a]pyrazin-8-one]
IC50 (human PDE1A): 0.011 ± 0.002 µM | IC50 (human PDE1B): 0.00936 ± 0.00201 µM | IC50 (human PDE1C): 0.00126 ± 0.00061 µM | IC50 [1]: > 100 µM | IC50 (human PDE4D): 14.3 µM | IC50 (human PDE6A/6B): > 10 µM

Cn1cc(Cc2cn3c(C4(C5CC5)CC4)nnc3c(=O)n2CC2CC2)cn1 [Example 1, 3-(1-Cyclopropylcyclopropyl)-7-(cyclopropylmethyl)-6-[(1-methylpyrazol-4-yl)methyl]-[1,2,4]triazolo[4,3-a]pyrazin-8-one]
IC50 (human PDE1A): 0.0203 ± 0.0005 µM | IC50 (human PDE1B): 0.0294 ± 0.0116 µM | IC50 (human PDE1C): 0.012 ± 0.004 µM | IC50 [1]: > 100 µM | IC50 (human PDE4D): 5.59 µM | IC50 (human PDE6A/6B): > 10 µM

Cc1c(C)n2c(C3(C)CC3)nnc2c(=O)n1CC1CCCCO1 (single isomer, unassigned) [Example 14, 5,6-Dimethyl-3-(1-methylcyclopropyl)-7-(tetrahydropyran-2-ylmethyl)-[1,2,4]triazolo[4,3-a]pyrazin-8-one]
IC50 [1]: > 100 µM | IC50 (human PDE4D): 40.8 µM | IC50 (human PDE6A/6B): > 10 µM

CCCCn1c(C)c(CC)n2c(C3(C4CC4)CC3)nnc2c1=O [Example 16, 7-Butyl-3-(1-cyclopropylcyclopropyl)-5-ethyl-6-methyl-[1,2,4]triazolo[4,3-a]pyrazin-8-one]
IC50 (human PDE1A): 0.00867 ± 0.00791 µM | IC50 (human PDE1B): 0.00654 ± 0.00261 µM | IC50 (human PDE1C): 0.0012 ± 0.00094 µM | IC50 [1]: > 100 µM | IC50 (human PDE4D): 22.3 µM | IC50 (human PDE6A/6B): > 10 µM

Cc1c(C)n2c(C3(C)CC3)nnc2c(=O)n1CC1CCCCO1 (racemic) [Example 8, 5,6-Dimethyl-3-(1-methylcyclopropyl)-7-(tetrahydropyran-2-ylmethyl)-[1,2,4]triazolo[4,3-a]pyrazin-8-one]
IC50 [1]: > 100 µM | IC50 (human PDE4D): 57.7 µM | IC50 (human PDE6A/6B): 2.66 µM

Cc1c(C)n2c(C3(C4CC4)CC3)nnc2c(=O)n1CC1CCCCO1 (racemic) [Example 6, 3-(1-cyclopropylcyclopropyl)-5,6-dimethyl-7-(tetrahydropyran-2-ylmethyl)-[1,2,4]triazolo[4,3-a]pyrazin-8-one]
IC50 (human PDE1C): 0.00188 ± 0.00056 µM | IC50 [1]: > 100 µM | IC50 (human PDE4D): 30.9 µM | IC50 (human PDE6A/6B): > 10 µM
